Assay results as given in article PMC9308754 (Chembiochem, 2022).
Values joined by “and” are separate entries in the source; they are usually repeats but may differ in a detail not shown here. Equal values may be shown once. Read-outs that look alike come from different tables or passages of the source.

Columns and labels:
hHDAC6 = target: T1, hHDAC6 (Homo sapiens, UniProt Q9UBN7); experiment: hHDAC6 activity assay; assay type: biochemical
T1 sequence (Q9UBN7 1-1215): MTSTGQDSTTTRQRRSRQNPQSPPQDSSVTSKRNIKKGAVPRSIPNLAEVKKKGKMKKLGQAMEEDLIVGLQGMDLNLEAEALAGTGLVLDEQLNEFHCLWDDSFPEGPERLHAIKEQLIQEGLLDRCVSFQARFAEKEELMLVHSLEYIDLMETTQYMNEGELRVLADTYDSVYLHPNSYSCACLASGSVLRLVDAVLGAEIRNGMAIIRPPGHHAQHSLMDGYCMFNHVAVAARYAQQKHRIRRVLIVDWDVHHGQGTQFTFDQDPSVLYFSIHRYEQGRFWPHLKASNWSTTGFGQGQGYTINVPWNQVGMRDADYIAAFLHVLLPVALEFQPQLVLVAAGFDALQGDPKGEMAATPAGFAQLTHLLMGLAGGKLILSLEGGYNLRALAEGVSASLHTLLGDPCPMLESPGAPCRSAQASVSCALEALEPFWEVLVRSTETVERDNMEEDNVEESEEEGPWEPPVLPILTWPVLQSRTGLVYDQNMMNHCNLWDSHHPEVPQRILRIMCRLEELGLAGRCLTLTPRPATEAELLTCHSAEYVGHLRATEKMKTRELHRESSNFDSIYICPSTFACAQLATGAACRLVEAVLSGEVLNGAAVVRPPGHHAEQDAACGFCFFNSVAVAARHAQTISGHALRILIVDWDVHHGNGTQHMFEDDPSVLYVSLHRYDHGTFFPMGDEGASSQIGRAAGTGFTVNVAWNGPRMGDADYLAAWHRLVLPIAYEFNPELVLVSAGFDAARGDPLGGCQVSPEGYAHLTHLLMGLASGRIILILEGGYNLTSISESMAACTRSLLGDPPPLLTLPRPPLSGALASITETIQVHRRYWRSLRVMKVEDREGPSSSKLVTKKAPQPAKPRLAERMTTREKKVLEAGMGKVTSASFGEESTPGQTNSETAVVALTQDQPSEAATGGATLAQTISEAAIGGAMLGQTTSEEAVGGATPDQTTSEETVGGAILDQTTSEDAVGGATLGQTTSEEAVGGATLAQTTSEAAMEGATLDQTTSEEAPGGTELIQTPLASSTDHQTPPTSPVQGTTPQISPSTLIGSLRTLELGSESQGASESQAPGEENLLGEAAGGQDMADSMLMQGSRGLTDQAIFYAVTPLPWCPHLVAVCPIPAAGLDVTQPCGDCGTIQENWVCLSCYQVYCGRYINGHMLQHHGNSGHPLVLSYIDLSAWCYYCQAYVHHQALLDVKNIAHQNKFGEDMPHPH

hHDAC8 = target: T2, hHDAC8 (Homo sapiens, UniProt Q9BY41); experiment: biochemical
T2 sequence (Q9BY41 1-377): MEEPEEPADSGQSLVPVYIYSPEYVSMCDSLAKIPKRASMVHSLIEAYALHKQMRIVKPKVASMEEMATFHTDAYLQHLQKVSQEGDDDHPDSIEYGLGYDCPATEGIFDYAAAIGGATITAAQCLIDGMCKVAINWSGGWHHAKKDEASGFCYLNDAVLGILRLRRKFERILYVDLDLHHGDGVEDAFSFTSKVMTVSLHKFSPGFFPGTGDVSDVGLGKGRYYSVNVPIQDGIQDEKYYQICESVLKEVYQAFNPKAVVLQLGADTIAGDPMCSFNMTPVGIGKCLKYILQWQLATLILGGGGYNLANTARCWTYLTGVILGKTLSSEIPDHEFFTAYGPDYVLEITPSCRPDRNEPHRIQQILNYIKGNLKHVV

HDAC10 [1] = target: T3, HDAC10 (Homo sapiens, UniProt Q969S8); experiment: HDAC10 binding assay
T3 sequence (Q969S8 1-669): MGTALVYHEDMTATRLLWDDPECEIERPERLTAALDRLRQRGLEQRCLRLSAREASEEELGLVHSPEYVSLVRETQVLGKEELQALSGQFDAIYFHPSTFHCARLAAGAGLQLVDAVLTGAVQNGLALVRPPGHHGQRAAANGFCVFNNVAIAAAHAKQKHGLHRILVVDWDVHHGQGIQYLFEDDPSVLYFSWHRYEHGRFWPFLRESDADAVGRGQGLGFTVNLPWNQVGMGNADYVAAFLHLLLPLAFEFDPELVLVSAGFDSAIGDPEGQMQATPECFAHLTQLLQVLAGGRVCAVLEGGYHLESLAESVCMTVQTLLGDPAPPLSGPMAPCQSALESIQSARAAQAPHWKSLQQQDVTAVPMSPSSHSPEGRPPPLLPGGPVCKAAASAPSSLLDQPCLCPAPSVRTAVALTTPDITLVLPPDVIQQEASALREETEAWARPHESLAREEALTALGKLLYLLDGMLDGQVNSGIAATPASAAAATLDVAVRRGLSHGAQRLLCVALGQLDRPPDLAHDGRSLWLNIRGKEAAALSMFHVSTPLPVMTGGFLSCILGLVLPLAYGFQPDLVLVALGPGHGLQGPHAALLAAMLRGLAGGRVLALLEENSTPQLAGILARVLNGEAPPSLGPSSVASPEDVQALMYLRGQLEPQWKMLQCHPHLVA

acetyl Histone H3 = experiment: Western blotting, acetylation of histone H3 in HL60 cells; assay type: cell-based; conditions: Western blot, 48 a/b at 10 μM
acetyl tubulin = experiment: Western blotting, acetylated tubulin in HL60 cells; assay type: cell-based; conditions: Western blot, 48 a/b at 10 μM
HDAC10 [2] = target: T3, HDAC10; experiment: BRET assay for HDAC10; assay type: cell-based
hHDAC1 = hHDAC1 (Homo sapiens, UniProt Q13547); assay type: biochemical
SK‐N‐BE(2)‐C cells [3] = experiment: LysoTracker assay, flow cytometry; assay type: cell-based; conditions: for increase of LysoTracker signal normalized against DMSO control: concentration differs per compound (Table 8)
drHDAC10 [4] = target: T4, drHDAC10 (Danio rerio, UniProt F1QCV2); experiment: Proof of substrate conversion by HPLC; assay type: biochemical, Danio rerio (zebrafish); conditions: drHDAC10 0.027 mg/mL, up to 45 min
T4 sequence (F1QCV2 2-675 limits assumed): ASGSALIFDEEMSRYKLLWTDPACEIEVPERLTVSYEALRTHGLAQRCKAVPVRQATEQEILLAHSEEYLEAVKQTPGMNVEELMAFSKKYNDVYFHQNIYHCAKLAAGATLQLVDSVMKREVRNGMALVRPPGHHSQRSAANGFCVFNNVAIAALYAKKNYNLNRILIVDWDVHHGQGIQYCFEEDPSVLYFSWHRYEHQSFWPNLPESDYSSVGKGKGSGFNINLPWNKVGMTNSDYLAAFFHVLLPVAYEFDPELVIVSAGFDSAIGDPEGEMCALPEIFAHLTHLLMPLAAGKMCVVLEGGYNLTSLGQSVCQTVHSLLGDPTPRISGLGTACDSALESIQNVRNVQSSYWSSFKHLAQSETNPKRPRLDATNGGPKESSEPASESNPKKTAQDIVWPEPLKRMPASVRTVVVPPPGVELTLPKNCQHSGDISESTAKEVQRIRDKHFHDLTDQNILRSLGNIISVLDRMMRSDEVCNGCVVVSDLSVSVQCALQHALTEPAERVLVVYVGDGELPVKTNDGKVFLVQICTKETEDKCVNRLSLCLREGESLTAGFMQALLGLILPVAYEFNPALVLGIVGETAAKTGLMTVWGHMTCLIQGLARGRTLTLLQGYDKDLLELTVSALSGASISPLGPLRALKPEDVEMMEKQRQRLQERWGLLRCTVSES

SK‐N‐BE(2)‐C cells [5] = experiment: LysoTracker assay, fluorescence microscopy; assay type: cell-based; conditions: 24 h after treatment
drHDAC10 [6] = target: T4, drHDAC10; experiment: NDA assay drHDAC10; conditions: for inhibition at 0.1 µM / inhibition at 1 µM: read-out: NDA assay drHDAC10 % inhibition
HDAC10 [7] = target: T3, HDAC10; conditions: read-out: BRET assay (EC50); in‐cellulo; ref 32 (Géraldy et al.); cited from earlier work
SK‐N‐BE(2)‐C cells [8] = conditions: 7.5 μM, flow cytometry; ref 16b; cited from earlier work
HDAC10 [9] = target: T3, HDAC10; conditions: TR‐FRET and BRET displacement assays; cited from earlier work
[10] = @ 1 (concentration unit not given)
[11] = @ 10 (concentration unit not given)

Sequence of hHDAC1 (Q13547 whole entry): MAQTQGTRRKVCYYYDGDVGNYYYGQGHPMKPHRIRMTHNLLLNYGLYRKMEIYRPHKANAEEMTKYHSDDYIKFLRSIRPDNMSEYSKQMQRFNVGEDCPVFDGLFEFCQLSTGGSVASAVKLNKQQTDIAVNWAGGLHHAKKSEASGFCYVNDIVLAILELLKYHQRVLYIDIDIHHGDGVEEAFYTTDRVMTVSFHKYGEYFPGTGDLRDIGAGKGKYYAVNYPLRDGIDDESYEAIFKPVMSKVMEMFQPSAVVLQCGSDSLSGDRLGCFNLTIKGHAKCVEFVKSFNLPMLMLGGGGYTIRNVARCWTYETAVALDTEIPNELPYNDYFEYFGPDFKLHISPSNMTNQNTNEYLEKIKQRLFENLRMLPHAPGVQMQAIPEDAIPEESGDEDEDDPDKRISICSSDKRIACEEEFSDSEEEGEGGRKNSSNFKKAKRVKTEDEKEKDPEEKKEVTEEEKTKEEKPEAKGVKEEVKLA

Structure (SMILES): O=C(NO)C1CCN(CCNCc2ccccc2)CC1 [48 a, 1‐(2‐(Benzylamino)ethyl)‐N‐hydroxypiperidine‐4‐carboxamide]
- hHDAC6 (ZMAL) % inhibition (hHDAC6; [10]): <10 % @ 10 <10 % @ 1
- hHDAC6 (ZMAL) % inhibition (hHDAC6; [11]): <10 % @ 10 <10 % @ 1
- IC50 (hHDAC8; hHDAC8 (FDL) IC50): 1970 ± 309 nM
- IC50 (hHDAC8; inhibition of HDAC8): ~1000 nM
- IC50 (HDAC10 [1]): 5 nM
- effect on acetyl Histone H3 (class I, representative HDAC1) (acetyl Histone H3): no increase
- effect on acetyl tubulin (HDAC6) (acetyl tubulin): no increase
- EC50 (HDAC10 [2]): 26 nM
- hHDAC1 (ZMAL) % inhibition (hHDAC1; [10]): < 10%
- hHDAC1 (ZMAL) % inhibition (hHDAC1; [11]): 20%

Structure (SMILES): O=C(NO)C1CCN(CCNCc2ccc(Br)cc2)CC1 [48 b, 1‐(2‐((4‐Bromobenzyl)amino)ethyl)‐N‐hydroxypiperidine‐4‐carboxamide]
- hHDAC6 (ZMAL) % inhibition (hHDAC6; [10]): < 10%
- hHDAC6 (ZMAL) % inhibition (hHDAC6; [11]): 11%
- LysoTracker effect (relative signal intensity as compared to control) (SK‐N‐BE(2)‐C cells [3]; 10 μM): 1.07±0.15
- LysoTracker effect (relative signal intensity as compared to control) (SK‐N‐BE(2)‐C cells [3]; 20.0 μM): 1.04±0.05
- increase of LysoTracker signal normalized against DMSO control (SK‐N‐BE(2)‐C cells [3]): did not show an increase in signal
- IC50 (hHDAC8; inhibition of HDAC8): ~1000 nM
- IC50 (HDAC10 [1]): 2 nM
- effect on acetyl Histone H3 (class I, representative HDAC1) (acetyl Histone H3): no increase
- effect on acetyl tubulin (HDAC6) (acetyl tubulin): no increase
- EC50 (HDAC10 [2]): 10 nM
- hHDAC1 (ZMAL) % inhibition (hHDAC1; [10]): < 10%
- hHDAC1 (ZMAL) % inhibition (hHDAC1; [11]): 11%

Structure (SMILES): CC(=O)NCCCCNCCC(=O)Nc1ccc2c(C)cc(=O)oc2c1 [Ac‐spermidine‐AMC, 3‐((4‐Acetamidobutyl)amino)‐N‐(4‐methyl‐2‐oxo‐2H‐chromen‐7‐yl)propanamide]
- maximal conversion by drHDAC10 (HPLC, fluorescamine derivatization) (drHDAC10 [4]): about 50%

Structure (SMILES): CN(C)Cc1c(C(=O)NCCOc2ccc(C(=O)NO)cc2)oc2ccccc12 [abexinostat]
- accumulation of lysosomes, LysoTracker signal by fluorescence microscopy (SK‐N‐BE(2)‐C cells [5]): very strong response
- increase of LysoTracker signal normalized against DMSO control (SK‐N‐BE(2)‐C cells [3]): up to 3 fold
- IC50 (drHDAC10 [6]): 134 ± 26 nM
- inhibition at 0.1 µM (drHDAC10 [6]): 45%
- inhibition at 1 µM (drHDAC10 [6]): > 95%

Structure (SMILES): CCCCOc1ccc(CC(=O)NO)cc1 [bufexamac]
- inhibition at 0.1 µM (drHDAC10 [6]): 26%
- inhibition at 1 µM (drHDAC10 [6]): 64%

Structure (SMILES): Nc1ccccc1NC(=O)c1ccc(CNc2nccc(-c3cccnc3)n2)cc1 [mocetinostat]
- inhibition at 0.1 µM (drHDAC10 [6]): < 10%
- inhibition at 1 µM (drHDAC10 [6]): < 10%

Structure (SMILES): Cc1[nH]c2ccccc2c1CCNCc1ccc(/C=C/C(=O)NO)cc1 [panobinostat]
- accumulation of lysosomes, LysoTracker signal by fluorescence microscopy (SK‐N‐BE(2)‐C cells [5]): very strong response
- increase of LysoTracker signal normalized against DMSO control (SK‐N‐BE(2)‐C cells [3]): up to 3 fold
- inhibition at 0.1 µM (drHDAC10 [6]): 65%
- inhibition at 1 µM (drHDAC10 [6]): > 95%

Structure (SMILES): Cn1cc(CNCC2CCN(c3ncc(C(=O)NO)cn3)CC2)c2ccccc21 [quisinostat]
- accumulation of lysosomes, LysoTracker signal by fluorescence microscopy (SK‐N‐BE(2)‐C cells [5]): very strong response
- increase of LysoTracker signal normalized against DMSO control (SK‐N‐BE(2)‐C cells [3]): up to 3 fold
- IC50 (drHDAC10 [6]): 50 nM
- inhibition at 0.1 µM (drHDAC10 [6]): 60%
- inhibition at 1 µM (drHDAC10 [6]): 91%
- EC50 (HDAC10 [7]): 40 nM

Structure (SMILES): O=C(CCCCCCC(=O)Nc1ccc([C@H]2O[C@@H](CSc3nc(-c4ccccc4)c(-c4ccccc4)o3)C[C@@H](c3ccc(CO)cc3)O2)cc1)NO [tubacin]
- accumulation of lysosomes, LysoTracker signal by fluorescence microscopy (SK‐N‐BE(2)‐C cells [5]): No influence
- LysoTracker effect (relative signal intensity as compared to control) (SK‐N‐BE(2)‐C cells [8]): 1.1 and 1.1±0.07

Structure (SMILES): CN1CCc2c(c3ccccc3n2Cc2ccc(C(=O)NO)cc2)C1 [tubastatin A]
- IC50 (drHDAC10 [6]): 30 ± 3 nM
- inhibition at 0.1 µM (drHDAC10 [6]): 82%
- inhibition at 1 µM (drHDAC10 [6]): > 95%
- HDAC10 binding in displacement assays (HDAC10 [9]): bound strongly

Structure (SMILES): O=C(CCCCCCC(=O)Nc1ccccc1)NO [vorinostat]
- IC50 (drHDAC10 [6]): 2000 ± 240 nM
- inhibition at 0.1 µM (drHDAC10 [6]): < 10%
- inhibition at 1 µM (drHDAC10 [6]): 43%
- effect on acetyl Histone H3 (class I, representative HDAC1) (acetyl Histone H3): robust hyperacetylation
- effect on acetyl tubulin (HDAC6) (acetyl tubulin): robust hyperacetylation
